Measured values reported in patent US6117840A, “CS-1 peptidomimetics, compositions and methods of using the same” (Cytel Corporation, priority 1997, dated 2000).
Square brackets hold non-standard residues; d marks the D form. Peptide text beside a SMILES is read from it. * marks the point of attachment. PhAc = O=C(Cc1ccccc1)*

How the values were obtained:
[1] = system: New Zealand white rabbits; assay: Rabbit cardiac allograft model; type: in vivo; conditions: for Expression on Coronary Arteries: ICAM-1 / Expression on Coronary Arteries: Macrophages / Expression on Coronary Arteries: T cells / Expression on Coronary Arteries: Total Fibronectin / Expression on Coronary Arteries: VCAM-1 / Vessel Intimal Thickening: Percent of Vessels / Vessel Intimal Thickening: Severity (Percent of Vessel area) / Expression on Coronary Arteries: MHC Class II: 1 mg/kg s.c., donor heart; for Expression on Coronary Arteries: MHC Class II: 7 to 8 days; for Expression on Coronary Arteries: ICAM-1: key: -: negative; ±: minimal; +: little; ++: moderately abundant; +++: very abundant; for Expression on Coronary Arteries: Macrophages: key: -: negative; ±: minimal; +: little; ++: moderately abundant; +++: very abundant; for Expression on Coronary Arteries: T cells: key: -: negative; ±: minimal; +: little; ++: moderately abundant; +++: very abundant; for Expression on Coronary Arteries: Total Fibronectin: key: -: negative; ±: minimal; +: little; ++: moderately abundant; +++: very abundant
Description: New Zealand white female rabbits (Charles River Lab., Saint Laurent, Quebec), between 3.5 and 4 kg underwent heterotopic cardiac transplant following an experimental protocol previously described [Alonso et al., Am. J. Pathol., 87:415-442 (1977); Clausell et al., Circulation, 89:2768-2779 (1994)] and approved by the Animal Care Committee of The Hospital for Sick Children, Toronto. The animals were […] to favor an HLA-mismatch, the host rabbits were Pasteurella-free and the donors, outbred animals. Both host and donor rabbits were fed Purina 5321-0.5 percent cholesterol diet (Research Diets Inc., New Brunswick, N.J.), a strategy that has proven useful in accelerating the process of allograft arteriopathy [Alonso et al., Am. J. Pathol., 87:415-442 (1977)]. The diet was commenced four days prior to the transplant and continued in the recipient of the transplant until the completion of the experimental period.
The technique of heterotopic cardiac transplantation has been previously described [Clausell et al., Circulation, 89:2768-2779 (1994)]. Briefly, a vertical incision was performed in the anterior aspect of the neck of the recipient rabbit and the left common carotid artery and the ipsilateral external jugular vein were isolated. The cardiac allograft was placed in the neck by anastomosing the aorta end-to-side to the recipient's carotid artery and the pulmonary end-to-side to the recipient's external jugular vein, following a total period of ischemia for the donor hearts of approximately 30 minutes. Postoperative care was in compliance with the Principles of Laboratory Animal Care formulated by the Canadian National Society for Medical Research.
Beginning the day of the transplant, the animals were randomized and treated with either scrambled peptide (control group) at 1 mg/kg s.c. or the inhibitor peptide at 1 mg/kg s.c. The doses of the peptides were empirically extrapolated to the in vivo model based on preliminary in vitro studies, of Table 1. No other immunosuppression therapy was administered. The grafts were monitored daily by palpation and maintained for 7 to 8 days, a previously described endpoint that was associated with myocardial rejection (impaired cardiac contractility) and development of the allograft arteriopathy in this model [Clausell et al., Circulation, 89:2768-2779 (1994)]. A total of fourteen animals were studied in the control (n=7) and treated (n=7) groups.
The animals were sacrificed using a lethal dose of euthanol (480 mg i.v.) (MTC Pharmaceutical, Cambridge, ON), host and donor hearts were removed, and the coronary arteries were perfused with saline through the aorta, followed by light fixation by perfusion with 2 percent paraformaldehyde (Sigma, St, Louis, Mo.). […] Different sections of the hearts were either saved in 10 percent formalin (BDH Inc., Toronto, ON) for light microscopy studies or immediately frozen in O.T.C. Compound Tissue Tek (Miles Inc., Elkart, Ind.) for specific immunohistochemistry studies.
Three different paraffin-embedded tissue sections from host and donor hearts from both control and treated rabbits were stained by the Movat pentachrome method for light microscopy. Morphometric analysis was performed using a Zeiss microscope attached to a computer-generated video analysis system (Perceptics Inc., NuVision software), as described in Clausell et al., Circulation, 89:2768-2779 (1994). The number of vessels with intimal lesions were counted in all three heart sections from each animal studied and are expressed as a percentage of the total vessel number.
In the host hearts, 999 vessels in the control group and 1054 vessels in the treated group were analyzed. In the donor hearts, 827 vessels in the control group and 617 vessels in the treated group were analyzed. […]

SJL/J mice = assay: Experimental autoimmune encephalomyelitis in mice; type: in vivo; conditions: 1 mg/mouse i.p. at days 8 and 9; versus scrambled control peptide
Method: EAE was induced in female SJL/J mice (8 to 14 weeks old) by immunization on day zero with 50 μg of a peptide corresponding to positions 139-151 of PLP emulsified in a 1:1 mixture of PBS and complete Freund's adjuvant (CFA). Each mouse was injected with 0.2 ml of the adjuvant emulsion subcutaneously (s.c.) at two sites in the hind flank. All mice received 10^7 killed Bordetella pertussis units in 100 μl were injected intravenously 24 to 72 hours later.
Mice were observed daily, beginning at day 8 for clinical signs of EAE, and disease was scored on a scale of 0-5 as: 0=no disease; 1=floppy tail; 2=moderate hind limb weakness; 3=paraparesis; 4=paraplegis with moderate forelimb weakness; 5=qualdriplegis or premoribund state.
The inhibitor peptide N--phenylacetyl--Leu--Asp--Phe--D--Pro--NH2 was administered intraperitoneally at 1 mg/mouse in 0.2 ml of incomplete Freund's adjuvant at days 8 and 9. A peptide having a scrambled sequence [N--phenylacetyl--Asp--Leu--Phe--D--Pro--NH2 ] was similarly administered to serve as a control.
Summed or averaged scores for clinical signs were plotted vs. time. The area under the resulting curves was calculated between day 8 and day 35 to calculate percentage inhibition of EAE by an inhibitor peptide. The percent inhibition was calculated as follows: [formula]

Row | SMILES | Expression on Coronary Arteries: ICAM-1 [1] | Expression on Coronary Arteries: Macrophages [1] | Expression on Coronary Arteries: T cells [1] | Expression on Coronary Arteries: Total Fibronectin [1] | Expression on Coronary Arteries: VCAM-1 [1] | Vessel Intimal Thickening: Percent of Vessels [1] [%] | Vessel Intimal Thickening: Severity (Percent of Vessel area) [1] [%] | Expression on Coronary Arteries: MHC Class II [1] | Baseline (rabbit own host heart) of incidence [1] [%] | Baseline (rabbit own host heart) of severity [1] [%] | clinical signs of EAE (SJL/J mice)
1 | CC(C)C[C@H](NC(=O)[C@H](CC(=O)O)NC(=O)Cc1ccccc1)C(=O)N[C@@H](Cc1ccccc1)C(=O)N1CCC[C@@H]1C(N)=O [X L D F p phenylacetyl amide scrambled, N--phenylacetyl--Asp--Leu--Phe--D--Pro--NH2, reference compound] (PhAc-DLF[dP]-NH2) | + | + | ++ | ++ | + | 88 | 36 | ++ | 1 | 12 | 
2 | CC(C)C[C@H](NC(=O)Cc1ccccc1)C(=O)N[C@@H](CC(=O)O)C(=O)N[C@@H](Cc1ccccc1)C(=O)N1CCC[C@@H]1C(N)=O [X L D F p phenylacetyl amide, N--phenylacetyl--Leu--Asp--Phe--D--Pro--NH2] (PhAc-LDF[dP]-NH2) | ± | ± | ± | ± | ± | 35 | 16 | ± | 12 | 12 | marked improvement in clinical signs
